The source of these data is patent publication US12365655B2, “Compounds” (CTXT PTY LTD, priority 2018, dated 2025).

The target in experiment [1] is MOZ-KAT6A (Homo sapiens, UniProt Q92794, A567V). The experiment can be described thus: Acetyltransferase biochemical assay (AlphaScreen), KAT6A.
For experiment [2], the target named is T1, MOF-KAT8 (Homo sapiens, UniProt Q9H7Z6).
T1 sequence (Q9H7Z6 with tags, fused parts or gaps): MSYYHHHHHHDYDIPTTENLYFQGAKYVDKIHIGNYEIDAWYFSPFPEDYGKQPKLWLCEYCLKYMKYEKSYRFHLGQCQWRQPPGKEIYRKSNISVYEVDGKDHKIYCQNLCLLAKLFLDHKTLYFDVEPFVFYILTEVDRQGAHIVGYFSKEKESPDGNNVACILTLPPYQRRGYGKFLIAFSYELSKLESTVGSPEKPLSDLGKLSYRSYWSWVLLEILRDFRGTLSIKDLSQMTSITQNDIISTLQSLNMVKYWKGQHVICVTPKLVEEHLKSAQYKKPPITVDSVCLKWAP
The experiment can be described thus: biochemical.

The target of experiment [3] is HBO-KAT7 (Homo sapiens, UniProt O95251). The experiment can be described thus: Acetyltransferase biochemical assay (AlphaScreen), KAT7. In general terms: Bead proximity is the source of the signal in Alpha formats.
Experiment [4] addresses TIP60-KAT5 (Homo sapiens, UniProt Q92993). In words: Acetyltransferase biochemical assay (AlphaScreen), KAT5.

Chain of HBO-KAT7 (O95251 with tags, fused parts or gaps): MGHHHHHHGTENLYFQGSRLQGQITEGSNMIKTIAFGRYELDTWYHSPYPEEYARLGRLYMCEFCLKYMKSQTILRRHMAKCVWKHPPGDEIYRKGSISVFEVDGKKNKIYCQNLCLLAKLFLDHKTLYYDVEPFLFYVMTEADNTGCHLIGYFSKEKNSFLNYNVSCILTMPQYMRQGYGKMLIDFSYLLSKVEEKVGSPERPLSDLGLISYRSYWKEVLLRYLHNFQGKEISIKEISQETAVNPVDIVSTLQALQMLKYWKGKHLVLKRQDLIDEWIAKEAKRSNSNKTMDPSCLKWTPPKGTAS
Chain of MOZ-KAT6A (Q92794 with tags, fused parts or gaps A567V): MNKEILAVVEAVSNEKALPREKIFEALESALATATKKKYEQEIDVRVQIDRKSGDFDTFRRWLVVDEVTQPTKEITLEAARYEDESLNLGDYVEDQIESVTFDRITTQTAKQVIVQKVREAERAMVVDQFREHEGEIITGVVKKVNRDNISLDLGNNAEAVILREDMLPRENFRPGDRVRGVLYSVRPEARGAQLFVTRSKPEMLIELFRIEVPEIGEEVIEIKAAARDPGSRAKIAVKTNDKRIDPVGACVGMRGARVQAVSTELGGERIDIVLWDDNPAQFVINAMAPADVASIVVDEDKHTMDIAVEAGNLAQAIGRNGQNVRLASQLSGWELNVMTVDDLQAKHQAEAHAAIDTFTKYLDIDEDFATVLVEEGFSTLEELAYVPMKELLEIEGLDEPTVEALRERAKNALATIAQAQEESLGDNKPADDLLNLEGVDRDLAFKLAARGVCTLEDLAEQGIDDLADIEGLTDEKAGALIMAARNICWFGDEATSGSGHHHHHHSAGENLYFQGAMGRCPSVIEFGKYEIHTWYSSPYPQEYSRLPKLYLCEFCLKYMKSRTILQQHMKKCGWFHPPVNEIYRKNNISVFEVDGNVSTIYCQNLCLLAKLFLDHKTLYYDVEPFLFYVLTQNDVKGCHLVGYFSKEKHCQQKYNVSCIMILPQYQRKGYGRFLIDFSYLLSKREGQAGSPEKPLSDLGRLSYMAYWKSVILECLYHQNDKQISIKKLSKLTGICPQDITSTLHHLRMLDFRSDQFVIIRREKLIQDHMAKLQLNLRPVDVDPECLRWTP
Chain of TIP60-KAT5 (Q92993 with tags, fused parts or gaps isoform Q92993-2): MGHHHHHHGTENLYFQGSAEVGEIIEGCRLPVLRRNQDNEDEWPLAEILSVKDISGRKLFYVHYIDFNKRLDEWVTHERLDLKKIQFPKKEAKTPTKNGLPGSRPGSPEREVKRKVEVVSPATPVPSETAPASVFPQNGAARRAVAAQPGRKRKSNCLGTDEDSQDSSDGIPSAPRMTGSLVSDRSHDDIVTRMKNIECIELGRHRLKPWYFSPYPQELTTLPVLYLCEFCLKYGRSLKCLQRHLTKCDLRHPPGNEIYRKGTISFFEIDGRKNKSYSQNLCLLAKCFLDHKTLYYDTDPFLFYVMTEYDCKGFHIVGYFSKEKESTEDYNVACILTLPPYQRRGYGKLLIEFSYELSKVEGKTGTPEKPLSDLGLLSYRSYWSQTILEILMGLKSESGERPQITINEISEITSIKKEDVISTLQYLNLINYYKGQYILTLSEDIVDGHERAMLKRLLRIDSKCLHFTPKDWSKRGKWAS

On to `COCc1cc2onc(NS(=O)(=O)c3ccc(OC)nc3)c2cc1C` [Example 164, 6-methoxy-N-(6-(methoxymethyl)-5-methylbenzo[d]isoxazol-3-yl)pyridine-3-sulfonamide], for which the half-maximal inhibitory concentration (IC50) in experiment [1] was 27.2 µM; in experiment [2], over 125 µM; in experiment [3] it was 61.6 µM; in experiment [4], over 125 µM.

Turning to `O=S(=O)(Nc1noc2cccc(Cl)c12)c1ccccc1` [Example 151, N-(4-chlorobenzo[d]isoxazol-3-yl)benzenesulfonamide], the 50% inhibitory concentration (IC50) is 27.9 µM in experiment [1], 34.7 µM in experiment [2], 25.6 µM in experiment [3] and over 125 µM in experiment [4].

In the case of `CCc1cc(S(=O)(=O)Nc2noc3cccc(Cl)c23)c(=O)n(C)c1` [Example 107, N-(4-Chlorobenzo[d]isoxazol-3-yl)-5-ethyl-1-methyl-2-oxo-1,2-dihydropyridine-3-sulfonamide], the 50% inhibitory concentration (IC50) in experiment [1] was determined as 14.9 µM; in experiment [2], 42.1 µM; in experiment [3], 11.7 µM; in experiment [4], 74.1 µM.

Take `Cc1ccc(-n2cccn2)cc1S(=O)(=O)Nc1noc2cccc(Cl)c12` [Example 20, N-(4-chlorobenzo [d]isoxazol-3-yl)-2-methyl-5-(1H-pyrazol-1-yl)benzenesulfonamide]: the IC50 in experiment [1] amounted to 29.4 µM; in experiment [2] it was 61.4 µM; in experiment [3], 41.3 µM; in experiment [4], 81.5 µM.

On to `Cc1ccc(-c2ccno2)cc1S(=O)(=O)Nc1noc2cccc(Cl)c12` [Example 19, N-(4-chlorobenzo [d]isoxazol-3-yl)-5-(isoxazol-5-yl)-2-methylbenzenesulfonamide], for which the IC50 stood at 32.2 µM in experiment [1], 41 µM in experiment [2], 36.1 µM in experiment [3] and 65 µM in experiment [4].

In the case of `COc1cccc(OC)c1S(=O)(=O)Nc1noc2ccc(OC(F)(F)F)cc12` [Example 100, 2,6-Dimethoxy-N-(5-(trifluoromethoxy)benzo [d]isoxazol-3-yl)benzenesulfonamide], the IC50 in experiment [1] came out at 0.972 µM; in experiment [2], 62.6 µM; in experiment [3], 2.24 µM; in experiment [4], 51.7 µM.

Turning to `CNc1cccc(OC)c1S(=O)(=O)Nc1noc2cccc(OC)c12` [Example 214, 2-Methoxy-N-(4-methoxybenzo[d]isoxazol-3-yl)-6-(methylamino)benzenesulfonamide], the IC50 is 36.4 µM in experiment [1], over 125 µM in experiment [2], over 125 µM in experiment [3] and over 125 µM in experiment [4].

Take `COc1cccc(OCC(N)=O)c1S(=O)(=O)Nc1noc2cccc(OC)c12` [Example 219, 2-(3-Methoxy-2-(N-(4-methoxybenzo[d]isoxazol-3-yl)sulfamoyl)phenoxy)acetamide]: the IC50 is 33.3 µM in experiment [1], 69.9 µM in experiment [2], 60.7 µM in experiment [3] and over 125 µM in experiment [4].

`COc1cccc(OCc2cnn(C)c2)c1S(=O)(=O)Nc1noc2cccc(OC)c12` [Example 221, 2-Methoxy-N-(4-methoxybenzo[d]isoxazol-3-yl)-6-((1-methyl-1H-pyrazol-4-yl)methoxy)benzenesulfonamide]: the IC50 in experiment [1] was 37.5 µM; in experiment [2], 27.9 µM; in experiment [3], 63.7 µM; in experiment [4] it was over 125 µM.

As to `CCOc1cccc2c(NS(=O)(=O)c3cc(CC)ccc3OC)noc12` [Example 132], the concentration for half-maximal inhibition (IC50) was 7.45 µM in experiment [1], 15.3 µM in experiment [2], 11.8 µM in experiment [3] and 53 µM in experiment [4].

For `O=S(=O)(Nc1noc2cccc(Cl)c12)c1ccccc1-c1cnco1` [Example 11, N-(4-chlorobenzo [d]isoxazol-3-yl)-2-(oxazol-5-yl)benzenesulfonamide], the IC50 was over 125 µM in experiment [1], 35.6 µM in experiment [2], 60.5 µM in experiment [3] and over 125 µM in experiment [4].

In the case of `CCc1ccc(OC)c(S(=O)(=O)Nc2noc3cccc(Cl)c23)c1` [Example 154], the half-inhibitory concentration (IC50) in experiment [1] turned out to be 0.516 µM; in experiment [2], 2.57 µM; in experiment [3], 3.13 µM; in experiment [4], 25.3 µM.

As to `COc1cccc(OC)c1S(=O)(=O)Nc1noc2cccc(N)c12` [Example 224], the IC50 in experiment [1] was 50.4 µM; in experiment [2] it was 113 µM; in experiment [3] it was over 125 µM; in experiment [4], over 125 µM.

For `COCc1cc(OC)c2c(NS(=O)(=O)c3c(OC)cccc3OC)noc2c1Cl` [Example 161], the IC50 was 1.87 µM in experiment [1], 118 µM in experiment [2], 2.51 µM in experiment [3] and over 125 µM in experiment [4].

As for `COc1cc(COc2cccc(OC)c2S(=O)(=O)Nc2noc3cccc(OC)c23)ccn1` [Example 216, 2-Methoxy-N-(4-methoxybenzo[d]isoxazol-3-yl)-6-((2-methoxypyridin-4-yl)methoxy)benzenesulfonamide], the IC50 in experiment [1] amounted to 0.625 µM; in experiment [2], 11.2 µM; in experiment [3] it was 3.11 µM; in experiment [4], 124 µM.

`COc1cccc(OC)c1S(=O)(=O)Nc1noc2cccc([N+](=O)[O-])c12` [Example 223, 2,6-Dimethoxy-N-(4-nitrobenzo[d]isoxazol-3-yl)benzenesulfonamide]: the IC50 in experiment [1] was 25.5 µM; in experiment [2], 42.4 µM; in experiment [3], 43.5 µM; in experiment [4], over 125 µM.

With `COc1ccc(S(=O)(=O)Nc2noc3ccc(C)cc23)c(OC)c1` [Example 170, 2,4-dimethoxy-N-(5-methylbenzo[d]isoxazol-3-yl)benzenesulfonamide], the half-inhibitory concentration (IC50) in experiment [1] was 1.5 µM; in experiment [2], 9.67 µM; in experiment [3], 0.982 µM; in experiment [4] it was 4.83 µM.

As to `COc1cccc2onc(NS(=O)(=O)c3cccc4ccoc34)c12` [Example 81, N-(4-methoxybenzo[d]isoxazol-3-yl)benzofuran-7-sulfonamide], the IC50 in experiment [1] was 43.6 µM; in experiment [2], 9.43 µM; in experiment [3], 6.73 µM; in experiment [4] it was 31.5 µM.

`CS(=O)(=O)c1ccc(S(=O)(=O)Nc2noc3cccc(Cl)c23)cc1` [Example 21, N-(4-chlorobenzo [d]isoxazol-3-yl)-4-(methylsulfonyl) benzenesulfonamide]: the concentration for half-maximal inhibition (IC50) in experiment [1] was 24.8 µM; in experiment [2], 39.7 µM; in experiment [3] it was 25.5 µM; in experiment [4] it was over 125 µM.

With `O=S(=O)(Nc1noc2cccc(Cl)c12)c1ccc(Cl)cc1` [Example 26, 4-chloro-N-(4-chlorobenzo[d]isoxazol-3-yl)benzenesulfonamide], the half-maximal inhibitory concentration (IC50) in experiment [1] was 60.1 µM; in experiment [2], 29.5 µM; in experiment [3] it was 34.5 µM; in experiment [4], over 125 µM.

On to `COc1cccc(OC)c1S(=O)(=O)Nc1noc2cc(C(C)OC)cc(OC)c12` (stereo not shown) [Example 93, 2,6-Dimethoxy-N-(4-methoxy-6-(1-methoxyethyl)benzo[d]isoxazol-3-yl)benzenesulfonamide], for which the IC50 in experiment [1] was found to be 0.181 µM; in experiment [2] it was 96.5 µM; in experiment [3], 2.8 µM; in experiment [4], 53.1 µM.

On to `CCc1ccc(OC)c(S(=O)(=O)Nc2noc3cccc(OC)c23)c1OC` [Example 94, 3-Ethyl-2,6-dimethoxy-N-(4-methoxybenzo[d]isoxazol-3-yl)benzenesulfonamide], for which the 50% inhibitory concentration (IC50) is 6.11 µM in experiment [1], 60.9 µM in experiment [2], 16.1 µM in experiment [3] and 124 µM in experiment [4].

With `CCc1ccc2onc(NS(=O)(=O)c3cc4c(cc3OC)CCCC4)c2c1` [Example 204, N-(5-Ethylbenzo[d]isoxazol-3-yl)-3-methoxy-5,6,7,8-tetrahydronaphthalene-2-sulfonamide], the concentration for half-maximal inhibition (IC50) came to 0.4 µM in experiment [1], 3.06 µM in experiment [2], 3.05 µM in experiment [3] and 4.57 µM in experiment [4].

For `CCc1ccc(OC)c(S(=O)(=O)Nc2noc3ccc(OC)cc23)c1` [Example 111, 5-Ethyl-2-methoxy-N-(5-methoxybenzo[d]isoxazol-3-yl)benzenesulfonamide], the IC50 in experiment [1] worked out at 0.842 µM; in experiment [2] it was 3.22 µM; in experiment [3], 4.54 µM; in experiment [4], 26.6 µM.

`COc1cc2c(cc1S(=O)(=O)Nc1noc3ccc(C4CC4)cc13)CCCC2` [Example 205, N-(5-Cyclopropylbenzo[d]isoxazol-3-yl)-3-methoxy-5,6,7,8-tetrahydronaphthalene-2-sulfonamide]: the IC50 in experiment [1] stood at 0.115 µM; in experiment [2], 3.44 µM; in experiment [3], 0.936 µM; in experiment [4] it was 3.73 µM.

`Cc1ncc(-c2ccc(C)c(S(=O)(=O)Nc3noc4cccc(Cl)c34)c2)o1` [Example 18, N-(4-chlorobenzo [d]isoxazol-3-yl)-2-methyl-5-(2-methyloxazol-5-yl)benzenesulfonamide]: the half-inhibitory concentration (IC50) in experiment [1] came to 74.9 µM; in experiment [2] it was 63.5 µM; in experiment [3], 34.1 µM; in experiment [4], 118 µM.

`CCOc1ccc2onc(NS(=O)(=O)c3cc(CC)ccc3OC)c2c1` [Example 109]: the half-maximal inhibitory concentration (IC50) was 1.21 µM in experiment [1], 9.12 µM in experiment [2], 4.07 µM in experiment [3] and 69.3 µM in experiment [4].

In the case of `COCc1cc2onc(NS(=O)(=O)c3cccnc3)c2cc1C` [Example 165, N-(6-(methoxymethyl)-5-methylbenzo[d]isoxazol-3-yl)pyridine-3-sulfonamide], the IC50 in experiment [1] was 99.9 µM; in experiment [2], over 125 µM; in experiment [3], 30.7 µM; in experiment [4], over 125 µM.

A word on the IC50: it is the concentration needed to halve the response being measured. Read a high IC50 as weaker potency.
